Molecules are shown by their SMILES.

Consider 29 compounds from US8168651B2, “Protein kinase modulators” (Cylene Pharmaceuticals, Inc., priority 2008, dated 2012).

Test [1] concerns K-562. The test can be described thus: Cell proliferation modulatory activity, K-562. The class given is cell-based. As to conditions: Homo sapiens, K562; K-562 cells.
Test [2] deals with recombinant human PIM1 (Homo sapiens (Human), UniProt P11309). The test can be described thus: PIM-1 kinase activity in cell-free in vitro assay. It is filed as biochemical. To be noted: cell-free assay; for inhibition at 0.5 µM: 500 nM compound, read-out: PIM-1: % inh 500 nM.
The subject of test [3] is MV-4-11. The test can be described thus: Cell proliferation modulatory activity, MV-4-11. It is filed as cell-based. To be noted: Homo sapiens, MV4-11; MV-4-11 cells.
For test [4], the system named is HCT-116 human colorectal carcinoma cells. Description: Cell-proliferation assay using Alamar Blue dye.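 Further: cells exposed to compound for about 4 days, then Alamar Blue added and dye fluorescence read after about 4 h, compared with medium-only control wells.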 It is filed as cell-based. To be noted: Homo sapiens, HCT-116, second HCT-116 column (c8); read-out: HCT-116 (uM) cell proliferation modulatory activity. Background: The colour change of resazurin is a common sign of viable cells or microbes.
Test [5] deals with recombinant human CK2 (Homo sapiens (Human), UniProt P68400). Description: CK2 assay (cell-free, 33P-ATP filter plate). The class given is biochemical. To be noted: 500 nM compound, cell-free assay; read-out: CK2: % inh 500 nM.
recombinant human CK2, sequence (P68400 whole entry): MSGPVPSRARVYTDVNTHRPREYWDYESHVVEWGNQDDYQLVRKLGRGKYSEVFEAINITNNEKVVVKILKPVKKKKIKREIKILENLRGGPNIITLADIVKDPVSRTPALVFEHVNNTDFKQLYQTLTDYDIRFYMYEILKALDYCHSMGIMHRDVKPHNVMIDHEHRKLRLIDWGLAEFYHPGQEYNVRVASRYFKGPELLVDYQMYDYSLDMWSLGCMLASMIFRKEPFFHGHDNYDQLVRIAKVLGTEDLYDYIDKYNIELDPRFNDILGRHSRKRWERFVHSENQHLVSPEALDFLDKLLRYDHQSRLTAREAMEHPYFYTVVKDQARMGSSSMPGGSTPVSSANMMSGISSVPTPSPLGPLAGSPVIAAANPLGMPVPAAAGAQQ
recombinant human CK2, sequence (P67870 whole entry partner): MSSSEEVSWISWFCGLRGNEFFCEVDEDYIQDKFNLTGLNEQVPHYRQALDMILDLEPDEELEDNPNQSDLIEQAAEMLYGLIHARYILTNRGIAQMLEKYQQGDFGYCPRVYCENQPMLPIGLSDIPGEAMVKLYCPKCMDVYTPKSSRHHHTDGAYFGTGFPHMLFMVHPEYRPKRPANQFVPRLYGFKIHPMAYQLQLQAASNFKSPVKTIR

recombinant human PIM1, sequence (P11309 whole entry): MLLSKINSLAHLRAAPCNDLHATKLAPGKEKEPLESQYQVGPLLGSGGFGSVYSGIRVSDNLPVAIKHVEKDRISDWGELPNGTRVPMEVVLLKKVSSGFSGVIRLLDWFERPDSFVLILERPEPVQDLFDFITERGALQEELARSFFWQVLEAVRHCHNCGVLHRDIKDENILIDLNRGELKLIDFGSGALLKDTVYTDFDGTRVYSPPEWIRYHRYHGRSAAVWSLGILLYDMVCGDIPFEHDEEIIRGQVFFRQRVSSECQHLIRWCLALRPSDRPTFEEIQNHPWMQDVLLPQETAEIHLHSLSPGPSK

With `Cc1ccccc1Nc1nc2cc(C(=O)O)ccc2c2cnc(NC3CC3)nc12`, the IC50 was 0.769 µM in test [1], 0.165 µM in test [3] and 10 µM in test [4]. Further, in test [2], the inhibition at 0.5 µM is 31.9%.
On to `Cc1nccn1CCNc1nc2cc(C(=O)O)ccc2c2cnccc12`, for which the IC50 in test [1] was greater than 10 µM; in test [2], 287 nM; in test [3], greater than 10 µM; in test [4], greater than 10 µM. For the same compound, the inhibition at 0.5 µM in test [2] was determined as 97.1%.
With `Cn1nc(C2CC2)cc1Nc1nc2cc(C(=O)O)ccc2c2cnccc12`, the IC50 in test [1] and in test [4] was greater than 10 µM throughout. The inhibition at 0.5 µM in test [5] stood at 96.2%; in test [2], 45.8%.
Regarding `CONc1nc2cc(C(=O)O)ccc2c2cnccc12`, the IC50 in test [1] and in test [4] was greater than 10 µM each time. Moreover, the inhibition at 0.5 µM in test [5] was 94.7%; in test [2] it was 34.9%.
Turning to `CON(C)c1nc2cc(C(=O)O)ccc2c2cnccc12`, the IC50 is greater than 10 µM in test [1], 897 nM in test [2] and greater than 10 µM in test [4]. The inhibition at 0.5 µM in test [5] is 84.7%; in test [2] it was 55.7%.
Regarding `CN(c1ccccc1)c1nc2cc(C(=O)O)ccc2c2cnccc12`, the IC50 in test [1] was greater than 10 µM; in test [2] it was 439 nM; in test [4], greater than 10 µM. The figures for the inhibition at 0.5 µM in test [5] and in test [2] were 89% and 71.2%, respectively.
As for `Cc1cc(Nc2nc3cc(C(=O)O)ccc3c3cnccc23)c2ccccc2n1`, the IC50 in test [1] and in test [4] was greater than 10 µM throughout. Moreover, the inhibition at 0.5 µM came to 96.6% in test [5] and 24.9% in test [2].
As to `O=C(O)c1ccc2c(c1)nc(Nc1ccccc1Cl)c1ccncc12`, the IC50 in test [1] is greater than 10 µM; in test [2], 372 nM; in test [4], greater than 10 µM. For the same compound, the results for the inhibition at 0.5 µM in test [5] and in test [2] were 97.3% and 70.7%, respectively.
Take `O=C(O)c1ccc2c(c1)nc(N1CCc3ccccc31)c1ccncc12`: the IC50 in test [1] and in test [4] was greater than 10 µM each time. The inhibition at 0.5 µM was 90.2% in test [5] and 9.63% in test [2].
Consider `O=C(O)c1ccc2c(c1)nc(Nc1ccccc1OC(F)(F)F)c1ccncc12`, for which the IC50 in test [1] and in test [4] was greater than 10 µM throughout. The results for the inhibition at 0.5 µM in test [5] and in test [2] were 92% and 32.5%, respectively.
Turning to `O=C(O)c1ccc2c(c1)nc(Nc1cccc(Cl)c1)c1ncccc12`, the IC50 in test [1] and in test [4] was greater than 10 µM throughout. The inhibition at 0.5 µM in test [5] is 40%; in test [2], 16.7%.
With `O=C(O)c1ccc2c(c1)nc(Nc1ccc(F)c(Cl)c1)c1ncccc12`, the IC50 in test [1] and in test [4] was greater than 10 µM in each case. For the same compound, the inhibition at 0.5 µM is 12.3% in test [5] and -15.5% in test [2].
Take `O=C(O)c1ccc2c(c1)nc(NCCNc1ccccc1)c1ccncc12`: the IC50 was greater than 10 µM in test [1], 700 nM in test [2], 0.185 µM in test [3] and greater than 10 µM in test [4].
In the case of `CN(c1ccccc1)c1nc2cc(C(=O)O)ccc2c2cnc(N)nc12`, the IC50 in test [1] is greater than 10 µM; in test [2], 223 nM; in test [3], greater than 10 µM; in test [4], greater than 10 µM.
`COc1cc(Nc2nc3cc(C(=O)O)ccc3c3cnccc23)cc(OC)c1`: the IC50 in test [1] is greater than 10 µM; in test [2] it was 152 nM; in test [3], 6.94 µM; in test [4] it was greater than 10 µM. Also, the values for the inhibition at 0.5 µM in test [5] and in test [2] were 99.4% and 72%, respectively.
Take `N#Cc1ccc2c(c1)nc(NCC(O)c1ccccc1)c1ccsc12` (centres unmarked): the IC50 in test [1], in test [3] and in test [4] was greater than 10 µM each time. Further, the inhibition at 0.5 µM in test [5] was -9.58%; in test [2], 6.38%.
In the case of `N#Cc1ccc2c(c1)nc(NCCn1cccc1)c1ccsc12`, the IC50 in test [1] was 6.07 µM; in test [3], greater than 10 µM; in test [4] it was greater than 10 µM. Moreover, the inhibition at 0.5 µM in test [5] is -22.3%; in test [2], -25.6%.
As to `CN1CCC(N(C)c2nc3cc(C#N)ccc3c3sccc23)C1` (centres unmarked), the IC50 in test [1] is greater than 10 µM; in test [3], 7.87 µM; in test [4], 4.65 µM. For the same compound, the inhibition at 0.5 µM in test [5] is -14.1%; in test [2], -6.14%.
Take `Cc1nccn1CCNc1nc2cc(C#N)ccc2c2sccc12`: the IC50 in test [1], in test [3] and in test [4] was greater than 10 µM each time. Also, the inhibition at 0.5 µM was -15.7% in test [5] and 8.62% in test [2].
Take `N#Cc1ccc2c(c1)nc(NCCn1ccnc1)c1ccsc12`: the IC50 in test [1], in test [3] and in test [4] was greater than 10 µM each time. Besides, the inhibition at 0.5 µM is -14.9% in test [5] and -0.12% in test [2].
As to `CN(CCN1CCCC1)c1nc2cc(C#N)ccc2c2sccc12`, the IC50 in test [1] turned out to be 3.04 µM; in test [3], 1.84 µM; in test [4], 1.41 µM. Moreover, the results for the inhibition at 0.5 µM in test [5] and in test [2] were -20.3% and -3.97%, respectively.
Consider `Cc1nccn1CCNc1nc2cc(-c3nnn[nH]3)ccc2c2sccc12`, for which the IC50 is greater than 10 µM in test [1], 119 nM in test [2], greater than 10 µM in test [3] and greater than 10 µM in test [4]. For the same compound, the inhibition at 0.5 µM in test [5] worked out at 62.1%; in test [2], 81.5%.
In the case of `N#Cc1ccc2c(c1)nc(N1CCC(N3CCOCC3)CC1)c1ccsc12`, the IC50 in test [1], in test [3] and in test [4] was greater than 10 µM each time. In addition, the inhibition at 0.5 µM in test [5] was -34.7%; in test [2], 0.408%.
With `CN1CCCC(Nc2nc3cc(C#N)ccc3c3sccc23)C1` (centres unmarked), the IC50 in test [1] was found to be 5.06 µM; in test [3], 3.23 µM; in test [4] it was 1.42 µM. Moreover, the inhibition at 0.5 µM is -17.5% in test [5] and 20.8% in test [2].
As for `N#Cc1ccc2c(c1)nc(NCc1ccc(C(N)=O)cc1)c1ccsc12`, the IC50 in test [1], in test [3] and in test [4] was greater than 10 µM throughout. Moreover, the inhibition at 0.5 µM in test [5] is -4.69%; in test [2], -23.8%.
Consider `CN(C)CCCNc1nc2cc(C#N)ccc2c2sccc12`, for which the IC50 is greater than 10 µM in test [1], 7.81 µM in test [3] and 3.37 µM in test [4]. Also, the inhibition at 0.5 µM in test [5] is -30.5%; in test [2], 23.8%.
The like results for `CN(C)CCCN(C)c1nc2cc(C#N)ccc2c2sccc12` were, in that order, 7.98 µM, 3.55 µM, 3.92 µM, -4.72% and 15.3%.
As for `CN(C)CCN(C)c1nc2cc(C#N)ccc2c2sccc12`, the IC50 in test [1] was determined as 1.87 µM; in test [3], 1.07 µM; in test [4], 0.511 µM. Moreover, the results for the inhibition at 0.5 µM in test [5] and in test [2] were 64.1% and -3.15%, respectively.
As to `CC1(C)CC(Nc2nc3cc(C#N)ccc3c3sccc23)CC(C)(C)N1`, the IC50 was greater than 10 µM in test [1], 9.88 µM in test [3] and 6.75 µM in test [4]. The inhibition at 0.5 µM in test [5] is -3.98%; in test [2], -1.38%.
